Reference: US6057371A, “Sigma receptor ligands and the use thereof” (Virginia Commonwealth University, priority 1992, dated 2000)
Structures can show the parent of a compound that is named as a salt. Where two headings read alike, the source gives them in different places.

Experiments:
sigma receptor = assay: Sigma receptor binding, [^3 H]DTG, brain membranes (both sigma-1 and sigma-2 sites); set-up: species or system guinea pig; conditions: for IC50: Table 6; for change in sigma affinity, words: Example 6
Protocol: Sigma receptor binding assays using guinea pig brain membrane homogenates and the radioligand [^3 H]DTG were conducted as described by Weber et al.. […] Briefly, frozen whole guinea-pig brains (Biotrol, Indianapolis, Ind.) were homogenized in 10 volumes (w/v) of ice-cold 320 mM sucrose using a Brinkman polytron. The homogenate was centrifuged at 1,000× g for 20 minutes at 4° C. The supernatant was centrifuged at 20,000× g for 20 minutes at 4° C. The resulting pellet was resuspended in 10 initial volumes of 50 mM Tris/HCl buffer at pH 7.4 and centrifuged at 20,000× g for 20 minutes at 4° C. The resulting pellet was resuspended in 5 initial volumes ice-cold 50 mM Tris/Hcl […], and the final volume was adjusted to yield a protein concentration of 3 mg/ml. Aliquots of 20-ml were stored at -70° C. until used, with no detectable loss of binding.
The protein concentration in the 1-ml final incubation volume was 800 ug/ml, corresponding to 32 mg of brain tissue (original wet weight) and to a tissue concentration within the linear range for specific binding. […] Incubations were terminated after 90 minutes at room temperature by addition of 4 ml of ice-cold 50 mM Tris/HCl (pH 7.4) and rapid filtration of the membrane suspension through Whatman GF/B glass-fiber filters under vacuum, using a 48-well cell harvester (Brandel). The filters were washed 2 times with 4 ml of 50 mM Tris/HCl (pH 7.4). Each filter was suspended in 10 ml Cytoscint (ICI), and radioactivity was measured by liquid scintillation spectrometry at a counting efficiency of approximately 50%. IC50 values were determined by non-linear regression analyis.
Further sigma receptor binding assays against [^3 H]DTG and 5HT-1A binding assays were conducted according to the procedure outlined in the previous examples.
Radioligand Binding. […] Briefly, membranes (P2 microsomal fraction) were diluted 1:3 with 50 mM Tris HCl (pH 7.4) and 0.4 mL was combined with 50 μL [^3 H]DTG (1-2 nM final concentration) and 50 μL of competing drug or buffer. After 90 min at room temperature, incubation was terminated by rapid filtration under vacuum through Whatman GF/B glass fiber filters using a Brandel 48-well cell harvester. Filters were washed three times with 5 mL of cold Tris HCl buffer and each filter was suspended in 5 mL of Cytoscint (ICN Biomedical). Radioactivity was measured by liquid scintillation spectrometry at a counting efficiency of 50%.

sigma-1 binding site = target: T1, sigma-1 binding site (Cavia porcellus, UniProt Q60492); assay: biochemical; set-up: species or system guinea pig; conditions: SIGMA-1 KI vs. 3H-PENTAZOCINE MEAN
T1 construct: Guinea pig whole membrane preparations (P2 microsomal fraction); from tissue; host or cells: guinea pig membranes (P2 microsomal fraction), as described by Weber et al; brain inferred from the sister test b489
Protocol: [^3 H]DTG was purchased from DuPont/NEN.
The radioactivity on the filters was determined by scintillation spectrometry at an efficiency of about 50% using Cytoscint (ICN) scintillation fluid.

[1] = running text, Examples 5 and 6, read-out: sigma receptor Ki
[2] = Table 7, Phenyl-(CH2)x -NH--(CH2)y -Phenyl, read-out: Ki

T1 sequence (Q60492 whole entry): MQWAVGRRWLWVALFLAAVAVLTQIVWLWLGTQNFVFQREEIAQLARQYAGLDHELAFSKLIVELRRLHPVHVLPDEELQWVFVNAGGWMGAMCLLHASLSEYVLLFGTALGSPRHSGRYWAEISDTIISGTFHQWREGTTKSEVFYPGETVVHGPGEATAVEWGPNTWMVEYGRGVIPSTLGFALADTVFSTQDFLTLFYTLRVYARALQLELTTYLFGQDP

Row | Compound | IC50 (sigma receptor; [^3 H]DTG) | also measured
1 | O=C(CCCCN1CCCCC1)c1cccc(Cl)c1 [Compound 170] | 4.18 nM | 
2 | CN(CCCCCc1ccccc1)CCCc1ccccc1 [Compound 136] | 1.78 nM | change in sigma affinity, words (sigma receptor): doubles affinity
3 | COc1ccc(CCCCCN2CCCCC2)cc1 [Compound 164] | 5.19 nM | 
4 | CCCCCCN(C)CCc1ccccc1 [Compound 130, N-Methyl-N-hexyl-2-phenylethylamine Hydrogen Oxalate] | 4.23 nM | Ki (sigma receptor; [1]): 3.8 nM
5 | CCCNC1CCc2ccccc2C1 (centres unmarked) [Compound 63] | 763 nM | 
6 | CN(CCc1ccccc1)CCc1ccccc1 [Compound 108] | 37.9 nM | 
7 | CN(CCCCCC1CCCCC1)CC1CCCCC1.Cl [Compound 152, N-Methyl-N-cyclohexylmethyl-5-cyclohexylpentylamine Hydrochloride] | 1.76 nM | change in sigma affinity, words (sigma receptor): doubles affinity
8 | O=C(CCCN1CCC2(CC1)C(=O)NCN2c1ccccc1)c1ccc(F)cc1 [Spiperone, reference compound] |  | Ki (sigma-1 binding site): 10000 nM
9 | CN1C2CCC1CC(O)(c1ccccc1)C2 (centres unmarked) [Compound 154] | 3960 nM | 
10 | CCN1CCC[C@H]1CNC(=O)c1c(OC)ccc(Br)c1OC [Remoxipride, reference compound] |  | Ki (sigma-1 binding site): 312 nM
11 | O=C(CCCCN1CC=C(c2ccc(Cl)cc2)CC1)c1ccc(Cl)cc1 [Compound 182] | 4.68 nM | 
12 | COc1cccc(C(=O)CCCCN2CCCCC2)c1 [Compound 169] | 22.8 nM | 
13 | c1cnc(N2CCNCC2)nc1 [Compound 107] | 10000 nM | 
14 | c1ccc(C2CCNCC2)cc1 [Compound 58] | 2050 nM | 
15 | N-(3-phenylpropyl)isopropylamine |  | Ki (sigma receptor; [1]): 22 nM
16 | c1ccc(CCCCCN2CC3CCC(CC3)C2)cc1 [Compound 190] | 1.07 nM | 
17 | c1ccc(CNCc2ccccc2)cc1 [x=1, y=1] |  | Ki (sigma receptor; [2]): 175 nM
18 | CCN(CC)CCOC(=O)C1c2ccccc2-c2ccccc21 [Compound 188] | 174 nM | 
19 | O=C(CCCCN1CCC(c2ccc(Cl)cc2)CC1)c1ccc(Cl)cc1 [Compound 183] | 1.97 nM | 
20 | O=C(CCCCN1CCC(c2ccccc2)CC1)c1ccc(Cl)cc1 [Compound 160] | 0.62 nM | 
21 | O=C(c1ccccc1)N1CCNCC1 [Compound 54] | 11800 nM | 
22 | OC1(c2ccccc2)CCNC1 (centres unmarked) [Compound 157] | 6110 nM | 
23 | c1ccc(CCCCNCCCCc2ccccc2)cc1 [x=4, y=4] |  | Ki (sigma receptor; [2]): 6.7 nM
24 | COc1ccc(C(=O)CCCCN2CCC(c3ccccc3)CC2)cc1 [Compound 162] | 0.9 nM | 

Row | Compound | IC50 (sigma receptor; [^3 H]DTG) | also measured
25 | COc1cccc(C(=O)CCCCN2CCC(c3ccccc3)CC2)c1 [Compound 174] | 1.1 nM | 
26 | C(/C=C/c1ccc2c(c1)OCO2)=C\CN1CCCCC1 [Compound 191] | 8.14 nM | 
27 | O=C(CCCCN1CCC(c2ccccc2)CC1)c1ccc(F)cc1 [Compound 178] | 0.896 nM | 
28 | CCCCCCN(C)CCC [Compound 131, N-Methyl-N-propylhexylamine Hydrogen Oxalate] | 46.9 nM | Ki (sigma receptor; [1]): 45 nM
29 | COc1cccc(CCNCCCCCc2ccccc2)c1 [Compound 145] | 1.63 nM | 
30 | O=C(CCCCN1CCC(c2ccccc2)CC1)c1cccc(Cl)c1 [Compound 171] | 1.19 nM | 
31 | c1ccc(CNCc2ccccc2)cc1 [Compound 109] | 184 nM | 
32 | CCCN(C)CCCCCc1ccccc1 [Compound 122] |  | Ki (sigma receptor; [1]): 2.4 nM
33 | c1ccc(CCCCNCCCc2ccccc2)cc1 [x=3, y=4] |  | Ki (sigma receptor; [2]): 7 nM
34 | CCCC(Cc1ccccc1)NCCCc1ccccc1 (centres unmarked) [Compound 100] | 25.6 nM | 
35 | c1ccc(CCCCCN2CCN(CCCCCc3ccccc3)CC2)cc1 [Compound 138] | 2.67 nM | 
36 | O=C1c2ccccc2C(=O)N1CCN1CCN(c2ccccc2)CC1 [Compound 95] | 17000 nM | 
37 | O=C(CCCN1CCCCC1)c1ccc(F)cc1 [Compound 175] | 42.9 nM | 
38 | O=C(CCCCN1CCCCC1)c1ccc(Cl)cc1 [Compound 159] | 1.3 nM | 
39 | COc1ccccc1CCNCCCCCc1ccccc1 [Compound 144] | 4.39 nM | 
40 | O=C(CCCCN1CCCCC1)C1CCCC1 [Compound 189] | 13.5 nM | 
41 | CN1CCC(O)(c2ccc(Cl)cc2)CC1 [Compound 156] | 131 nM | 
42 | Oc1ccccc1CCNCCCCCc1ccccc1 [Compound 173] | 17.2 nM | 
43 | CN1CCC(O)(c2ccccc2)CC1 [Compound 155] | 1870 nM | 
44 | O=C(CCCCN1CCC(c2ccc(Cl)cc2)CC1)c1ccc(Cl)c(Cl)c1 [Compound 184] | 1.98 nM | 
45 | Clc1ccc(CCCCCN2CCC(c3ccccc3)CC2)cc1 [Compound 167] | 1.96 nM | 
46 | O=C(CCCCN1CCC(O)(c2ccc(Cl)cc2)CC1)c1ccc(F)cc1 [Compound 179] | 2.82 nM | 
47 | O=C(CCCCN1CC=C(c2ccc(F)cc2)CC1)c1ccc(Cl)cc1 [Compound 180] | 2.24 nM | 
48 | CCCc1ccc(CC(C)N(C)CCCc2ccccc2)cc1 (centres unmarked) |  | affinity for the sigma receptor, words (sigma receptor; Example 5): highest and most selective affinity for the sigma receptor

Row | Compound | IC50 (sigma receptor; [^3 H]DTG) | also measured
49 | O=C(CCCCN1CCC(c2ccccc2)CC1)c1ccccc1 [Compound 166] | 1.03 nM | 
50 | OC1(c2ccccc2)CCN(CCc2ccccc2)CC1 [Compound 148] | 6.43 nM | 
51 | CN1CCc2ccccc2C(c2ccccc2)C1 (centres unmarked) [Compound 102] | 6690 nM | 
52 | CCCN(CCCc1ccccc1)[C@@H](C)Cc1ccccc1 [Compound 133] | 6.44 nM | 
53 | Oc1cccc(CCNCCCCCc2ccccc2)c1 [Compound 172, N-[2-(3-hydroxyphenyl)ethyl]-5-phenylpentylamine Hydrobromide] | 7.46 nM | 
54 | O=C(O)C(=O)O.c1ccc(CCCCCNc2ccccc2)cc1 [Compound 135, N-Phenyl-5-phenyl pentyl amine Hydrogen Oxal ate] | 13.5 nM | change in sigma receptor affinity vs. analog (sigma receptor; Examples 5 and 6, [^3 H]DTG): 6 fold; Ki (sigma receptor; [1]): 12 nM
55 | C(CCNCC1CCCCC1)CCC1CCCCC1 [Compound 151, H-Cyclohexylmethyl-5-cyclohexylpentylamine Hydrochloride] | 1.39 nM | 
56 | CC(C)(C)C1(O)CCN(CCc2ccccc2)CC1 [Compound 149] | 21.5 nM | 
57 | O=C1c2ccccc2C(=O)N1CCCCN1CCN(Cc2ccccc2)CC1 [Compound 119] | 21.4 nM | 
58 | c1ccc(CN2CCCCC2)cc1 [Compound 147] | 117 nM | 
59 | CCC[C@@H](Cc1ccccc1)N(C)CCCc1ccccc1 [Compound 116] | 10.1 nM | 
60 | COc1ccc(CCNCCCCCc2ccccc2)cc1 [Compound 146] | 2.38 nM | 
61 | OC1(c2ccccc2)CC2CCC(C1)N2CCCCCc1ccccc1 (centres unmarked) [Compound 153] | 2.21 nM | 
62 | CN1CCC(OC(c2ccccc2)c2ccccc2)CC1 [Compound 186] | 656 nM | 
63 | COc1ccc(CCCCCN2CCC(c3ccccc3)CC2)cc1 [Compound 165] | 1.27 nM | 
64 | c1ccc(CCCCCCNCCCc2ccccc2)cc1 [x=3, y=6] |  | Ki (sigma receptor; [2]): 2.6 nM
65 | COc1ccccc1C1(O)CCNCC1 [Compound 61] | 14800 nM | 
66 | C1CCC(CCCCCN2CCCCC2)CC1 [Compound 150] | 0.96 nM | 
67 | CCN(CC)CCOC(=O)C(c1ccccc1)c1ccccc1 [Compound 187] | 50.6 nM | 
68 | O=C(CCCCN1CCCCC1)c1ccc(F)cc1 [Compound 177] | 7.37 nM | 
69 | c1ccc(CCCNCCc2ccc3ccccc3c2)cc1 [Compound 88] | 53.4 nM | 
70 | O=C(CCCCN1CCC(c2ccc(F)cc2)CC1)c1ccc(Cl)cc1 [Compound 181] | 1.08 nM | 
71 | COc1ccc(C(=O)CCCCN2CCCCC2)cc1 [Compound 161] | 10.9 nM | 
